Assay results as given in patent US20110173718A1, “HERBICIDE TOLERANT PLANTS” (SYNGENTA CROP PROTECTION, INC., priority 2008, published 2011).

Test system: weeds
Test: Glasshouse weed control by HST/HPPD (mesotrione) mixtures, pre-emergence
Format: in vivo
Settings: for colby: Colby synergy score; for % Damage at 14 DAA, 1 g ai ha^−1 mesotrione / % Damage at 14 DAA, no-mesotrione: N = 3
Experimental: Weed seeds are planted out in trays containing suitable soil (for example 50% peat, 50% John Innes soil no 3) and grown in the glass house conditions under 24-27° C. day; 18-21° C. night and approximately a 14 h (or longer in UK summer) photoperiod. Humidity is ˜65% and light levels up to 2000 μmol/m^2 at bench level. Trays are sprayed with test chemicals dissolved in water with 0.2-0.25% X-77 surfactant and sprayed from a boom on a suitable track sprayer moving at about 2 mph in a suitable track sprayer (for example a DeVries spray chamber with the nozzle about 2 inches from the plant tops). Spray volume is suitably 500-1000 l/ha. Sprays are carried out both pre-emergence and over small plants at about 7-12 d post-emergence
Plants are assessed 14 DAT and herbicidal damage is scored on a scale from 0 to 100%. The HST inhibitor compound 2.30 (designated compound A in table 16 and 17), haloxydine (compound 1.1) and compound 2.13 (designated compound AE in tables 16 and 17) are sprayed at rates between 0 and 500 g/ha.

[1] = ALOMY, 16 g/ha + mesotrione 1 g ai/ha
[2] = ALOMY, 31 g/ha + mesotrione 1 g ai/ha
[3] = ALOMY, 63 g/ha + mesotrione 1 g ai/ha
[4] = ALOMY, 125 g/ha + mesotrione 1 g ai/ha
[5] = ALOMY, 250 g/ha + mesotrione 1 g ai/ha
[6] = ALOMY, 500 g/ha + mesotrione 1 g ai/ha
[7] = AMARE, 16 g/ha + mesotrione 1 g ai/ha
[8] = AMARE, 31 g/ha + mesotrione 1 g ai/ha
[9] = AMARE, 63 g/ha + mesotrione 1 g ai/ha
[10] = AMARE, 125 g/ha + mesotrione 1 g ai/ha
[11] = AMARE, 250 g/ha + mesotrione 1 g ai/ha
[12] = AMARE, 500 g/ha + mesotrione 1 g ai/ha
[13] = ECHCG, 16 g/ha + mesotrione 1 g ai/ha
[14] = ECHCG, 31 g/ha + mesotrione 1 g ai/ha
[15] = ECHCG, 63 g/ha + mesotrione 1 g ai/ha
[16] = ECHCG, 125 g/ha + mesotrione 1 g ai/ha
[17] = ECHCG, 250 g/ha + mesotrione 1 g ai/ha
[18] = ECHCG, 500 g/ha + mesotrione 1 g ai/ha
[19] = IPOHE, 16 g/ha + mesotrione 1 g ai/ha
[20] = IPOHE, 31 g/ha + mesotrione 1 g ai/ha
[21] = IPOHE, 63 g/ha + mesotrione 1 g ai/ha
[22] = IPOHE, 125 g/ha + mesotrione 1 g ai/ha
[23] = IPOHE, 250 g/ha + mesotrione 1 g ai/ha
[24] = IPOHE, 500 g/ha + mesotrione 1 g ai/ha
[25] = SETFA, 16 g/ha + mesotrione 1 g ai/ha
[26] = SETFA, 31 g/ha + mesotrione 1 g ai/ha
[27] = SETFA, 63 g/ha + mesotrione 1 g ai/ha
[28] = SETFA, 125 g/ha + mesotrione 1 g ai/ha
[29] = SETFA, 250 g/ha + mesotrione 1 g ai/ha
[30] = SETFA, 500 g/ha + mesotrione 1 g ai/ha
[31] = SOLNI, 16 g/ha + mesotrione 1 g ai/ha
[32] = SOLNI, 31 g/ha + mesotrione 1 g ai/ha
[33] = SOLNI, 63 g/ha + mesotrione 1 g ai/ha
[34] = SOLNI, 125 g/ha + mesotrione 1 g ai/ha
[35] = SOLNI, 250 g/ha + mesotrione 1 g ai/ha
[36] = SOLNI, 500 g/ha + mesotrione 1 g ai/ha

Compound: O=c1c(-c2c(F)ccc(F)c2Cl)c(O)c2cccnc2n1CC(F)F [Compound 2.13]
- colby [1]: 0%
- % Damage at 14 DAA, 1 g ai ha^−1 mesotrione [1]: 0%
- % Damage at 14 DAA, no-mesotrione (ALOMY, 16 g/ha): 0%
- colby [2]: 0%
- % Damage at 14 DAA, 1 g ai ha^−1 mesotrione [2]: 0%
- % Damage at 14 DAA, no-mesotrione (ALOMY, 31 g/ha): 0%
- colby [3]: 0%
- % Damage at 14 DAA, 1 g ai ha^−1 mesotrione [3]: 0%
- % Damage at 14 DAA, no-mesotrione (ALOMY, 63 g/ha): 0%
- colby [4]: 0%
- % Damage at 14 DAA, 1 g ai ha^−1 mesotrione [4]: 0%
- % Damage at 14 DAA, no-mesotrione (ALOMY, 125 g/ha): 0%
- colby [5]: 0%
- % Damage at 14 DAA, 1 g ai ha^−1 mesotrione [5]: 0%
- % Damage at 14 DAA, no-mesotrione (ALOMY, 250 g/ha): 0%
- colby [6]: −1%
- % Damage at 14 DAA, 1 g ai ha^−1 mesotrione [6]: 0%
- % Damage at 14 DAA, no-mesotrione (ALOMY, 500 g/ha): 2%
- colby [7]: 5%
- % Damage at 14 DAA, 1 g ai ha^−1 mesotrione [7]: 7%
- % Damage at 14 DAA, no-mesotrione (AMARE, 16 g/ha): 0%
- colby [8]: 13%
- % Damage at 14 DAA, 1 g ai ha^−1 mesotrione [8]: 23%
- % Damage at 14 DAA, no-mesotrione (AMARE, 31 g/ha): 8%
- colby [9]: 4%
- % Damage at 14 DAA, 1 g ai ha^−1 mesotrione [9]: 33%
- % Damage at 14 DAA, no-mesotrione (AMARE, 63 g/ha): 28%
- colby [10]: 12%
- % Damage at 14 DAA, 1 g ai ha^−1 mesotrione [10]: 45%
- % Damage at 14 DAA, no-mesotrione (AMARE, 125 g/ha): 32%
- colby [11]: 3%
- % Damage at 14 DAA, 1 g ai ha^−1 mesotrione [11]: 57%
- % Damage at 14 DAA, no-mesotrione (AMARE, 250 g/ha): 53%
- colby [12]: 9%
- % Damage at 14 DAA, 1 g ai ha^−1 mesotrione [12]: 70%
- % Damage at 14 DAA, no-mesotrione (AMARE, 500 g/ha): 60%
- colby [13]: 0%
- % Damage at 14 DAA, 1 g ai ha^−1 mesotrione [13]: 0%
- % Damage at 14 DAA, no-mesotrione (ECHCG, 16 g/ha): 0%
- colby [14]: 0%
- % Damage at 14 DAA, 1 g ai ha^−1 mesotrione [14]: 0%
- % Damage at 14 DAA, no-mesotrione (ECHCG, 31 g/ha): 0%
- colby [15]: 3%
- % Damage at 14 DAA, 1 g ai ha^−1 mesotrione [15]: 3%
- % Damage at 14 DAA, no-mesotrione (ECHCG, 63 g/ha): 0%
- colby [16]: 3%
- % Damage at 14 DAA, 1 g ai ha^−1 mesotrione [16]: 3%
- % Damage at 14 DAA, no-mesotrione (ECHCG, 125 g/ha): 0%
- colby [17]: 2%
- % Damage at 14 DAA, 1 g ai ha^−1 mesotrione [17]: 2%
- % Damage at 14 DAA, no-mesotrione (ECHCG, 250 g/ha): 0%
- colby [18]: −2%
- % Damage at 14 DAA, 1 g ai ha^−1 mesotrione [18]: 2%
- % Damage at 14 DAA, no-mesotrione (ECHCG, 500 g/ha): 3%
- colby [19]: 0%
- % Damage at 14 DAA, 1 g ai ha^−1 mesotrione [19]: 0%
- % Damage at 14 DAA, no-mesotrione (IPOHE, 16 g/ha): 0%
- colby [20]: 0%
- % Damage at 14 DAA, 1 g ai ha^−1 mesotrione [20]: 0%
- % Damage at 14 DAA, no-mesotrione (IPOHE, 31 g/ha): 0%
- colby [21]: 7%
- % Damage at 14 DAA, 1 g ai ha^−1 mesotrione [21]: 7%
- % Damage at 14 DAA, no-mesotrione (IPOHE, 63 g/ha): 0%
- colby [22]: 0%
- % Damage at 14 DAA, 1 g ai ha^−1 mesotrione [22]: 0%
- % Damage at 14 DAA, no-mesotrione (IPOHE, 125 g/ha): 0%
- colby [23]: 5%
- % Damage at 14 DAA, 1 g ai ha^−1 mesotrione [23]: 5%
- % Damage at 14 DAA, no-mesotrione (IPOHE, 250 g/ha): 0%
- colby [24]: 0%
- % Damage at 14 DAA, 1 g ai ha^−1 mesotrione [24]: 17%
- % Damage at 14 DAA, no-mesotrione (IPOHE, 500 g/ha): 17%
- colby [25]: 0%
- % Damage at 14 DAA, 1 g ai ha^−1 mesotrione [25]: 0%
- % Damage at 14 DAA, no-mesotrione (SETFA, 16 g/ha): 0%
- colby [26]: 0%
- % Damage at 14 DAA, 1 g ai ha^−1 mesotrione [26]: 0%
- % Damage at 14 DAA, no-mesotrione (SETFA, 31 g/ha): 0%
- colby [27]: 0%
- % Damage at 14 DAA, 1 g ai ha^−1 mesotrione [27]: 0%
- % Damage at 14 DAA, no-mesotrione (SETFA, 63 g/ha): 0%
- colby [28]: 0%
- % Damage at 14 DAA, 1 g ai ha^−1 mesotrione [28]: 0%
- % Damage at 14 DAA, no-mesotrione (SETFA, 125 g/ha): 0%
- colby [29]: 0%
- % Damage at 14 DAA, 1 g ai ha^−1 mesotrione [29]: 0%
- % Damage at 14 DAA, no-mesotrione (SETFA, 250 g/ha): 0%
- colby [30]: 0%
- % Damage at 14 DAA, 1 g ai ha^−1 mesotrione [30]: 0%
- % Damage at 14 DAA, no-mesotrione (SETFA, 500 g/ha): 0%
- colby [31]: −12%
- % Damage at 14 DAA, 1 g ai ha^−1 mesotrione [31]: 5%
- % Damage at 14 DAA, no-mesotrione (SOLNI, 16 g/ha): 0%
- colby [32]: −3%
- % Damage at 14 DAA, 1 g ai ha^−1 mesotrione [32]: 23%
- % Damage at 14 DAA, no-mesotrione (SOLNI, 31 g/ha): 12%
- colby [33]: 4%
- % Damage at 14 DAA, 1 g ai ha^−1 mesotrione [33]: 38%
- % Damage at 14 DAA, no-mesotrione (SOLNI, 63 g/ha): 22%
- colby [34]: 9%
- % Damage at 14 DAA, 1 g ai ha^−1 mesotrione [34]: 53%
- % Damage at 14 DAA, no-mesotrione (SOLNI, 125 g/ha): 33%
- colby [35]: 5%
- % Damage at 14 DAA, 1 g ai ha^−1 mesotrione [35]: 78%
- % Damage at 14 DAA, no-mesotrione (SOLNI, 250 g/ha): 68%
- colby [36]: −1%
- % Damage at 14 DAA, 1 g ai ha^−1 mesotrione [36]: 87%
- % Damage at 14 DAA, no-mesotrione (SOLNI, 500 g/ha): 85%
